The target of the assay is T1, alpha-synuclein (αsyn) pre-formed fibrils (Homo sapiens, UniProt P37840).
T1 construct: gene SNCA; Full-length wildtype human αsyn, pre-formed amyloid fibrils (PFFs)
The experiment in a line: fluorescence titration of h-FTAA with […] recombinant fibrils, simulated binding curve; lifetime imaging (FLIM).

The values below come from article PMC11594916, “In Vitro Cell Model Investigation of Alpha-Synuclein Aggregate Morphology Using Spectroscopic Imaging” (International Journal of Molecular Sciences, 2024).

As usually defined, the Kd is a measure of binding affinity in units of concentration. Take `O=C(O)Cc1cc(-c2ccc(-c3ccc(C(=O)O)s3)s2)sc1-c1ccc(-c2sc(-c3ccc(-c4ccc(C(=O)O)s4)s3)cc2CC(=O)O)s1` [h-FTAA]: the Kd was under 0.1 µM.
